Results: ChEMBL document CHEMBL5154655, “Identification of indole-based activators of insulin degrading enzyme” (Eur J Med Chem, 2022)
In brackets after ≈: the same amount, converted by molar mass.

How the values were obtained:
[1] = Solubility of the compound at 100 uM; type: physicochemical
Insulin-degrading enzyme = molecular target: T1, Insulin-degrading enzyme (Homo sapiens, UniProt P14735); assay: Activation of human recombinant IDE using ATTO 655-Cys-Lys-Leu-Val-Phe-Phe-Ala-Glu-Asp-trp as substrate incubated for 10 mins followed by substrate addition and measured after 20 mins by fluorescence spectrophotometer analysis
T1 sequence (P14735 whole entry): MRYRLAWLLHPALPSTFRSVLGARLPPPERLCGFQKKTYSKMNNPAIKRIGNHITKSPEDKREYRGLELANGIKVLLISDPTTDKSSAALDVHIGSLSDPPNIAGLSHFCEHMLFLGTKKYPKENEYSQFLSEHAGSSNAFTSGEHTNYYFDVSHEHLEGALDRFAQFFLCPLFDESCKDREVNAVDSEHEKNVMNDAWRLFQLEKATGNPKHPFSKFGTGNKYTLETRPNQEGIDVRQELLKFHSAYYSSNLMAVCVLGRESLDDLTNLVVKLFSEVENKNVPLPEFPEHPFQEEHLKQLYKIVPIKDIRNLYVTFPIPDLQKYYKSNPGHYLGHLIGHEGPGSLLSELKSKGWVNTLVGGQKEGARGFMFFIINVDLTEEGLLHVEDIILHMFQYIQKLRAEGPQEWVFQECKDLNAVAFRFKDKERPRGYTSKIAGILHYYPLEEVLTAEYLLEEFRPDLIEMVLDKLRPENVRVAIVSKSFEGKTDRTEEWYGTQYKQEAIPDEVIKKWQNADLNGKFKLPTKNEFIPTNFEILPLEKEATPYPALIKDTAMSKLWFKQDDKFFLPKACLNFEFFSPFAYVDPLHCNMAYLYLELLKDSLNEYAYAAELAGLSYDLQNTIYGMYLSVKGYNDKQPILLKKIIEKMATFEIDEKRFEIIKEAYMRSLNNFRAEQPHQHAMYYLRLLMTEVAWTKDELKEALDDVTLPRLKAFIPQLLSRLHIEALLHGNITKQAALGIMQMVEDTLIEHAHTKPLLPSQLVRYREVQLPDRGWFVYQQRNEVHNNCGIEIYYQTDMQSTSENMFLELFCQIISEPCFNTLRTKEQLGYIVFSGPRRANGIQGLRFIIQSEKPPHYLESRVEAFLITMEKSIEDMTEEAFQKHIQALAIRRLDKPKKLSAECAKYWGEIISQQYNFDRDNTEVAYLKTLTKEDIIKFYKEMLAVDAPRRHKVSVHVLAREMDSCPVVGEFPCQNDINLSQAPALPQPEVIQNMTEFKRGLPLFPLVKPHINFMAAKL

[2] = Stability in rat plasma assessed as half life at 10 uM; type: ADME, cell-free
[3] = Aqueous thermodynamic solubility of the compound in phosphate buffer/MeOH at pH 7.4 measured after 24 hrs by LC-MS/MS analysis; type: physicochemical; details: read-out: Therm_solubility
[4] = Lipophilicity, logD of the compound in 1-octanol and phosphate buffer at pH 7.4 incubated for 2 hrs under shaking condition by LC-MS/MS analysis; type: physicochemical; details: 1-octanol/phosphate buffer
[5] = Dissociation constant, pKa of the compound; type: physicochemical
[6] = Solubility of the compound at 15 uM; type: physicochemical

Row | solubility [1] | EC50 (Insulin-degrading enzyme) [µM] | Structure (SMILES) | other results
1 | Insoluble |  | O=C(CCCc1cn(C(=O)c2ccc(Cl)cc2)c2ccccc12)NCCCn1ccnc1 | 
2 |  | 38.9 | O=C(CCCC1C(=O)Nc2ccccc21)NCCCn1ccnc1 (stereo unspecified) | 
3 |  | 15.5 | O=C(CCc1cn(S(=O)(=O)c2ccccc2)c2ccccc12)NCCCn1ccnc1 | 
4 | Insoluble |  | O=C(CCCc1cn(S(=O)(=O)c2cccc3nsnc23)c2ccccc12)NCCCn1ccnc1 | 
5 |  | 12.3 | O=C(CCCc1nn(S(=O)(=O)c2ccccc2)c2ccccc12)NCCCn1ccnc1 | 
6 | Insoluble |  | O=C(CCCCc1cn(S(=O)(=O)c2ccccc2)c2ccccc12)NCCCn1ccnc1 | 
7 |  |  | O=C(CCCc1cn(S(=O)(=O)c2cccs2)c2ccccc12)NCCCn1ccnc1 | half-life at 10 µM [2]: > 24 h; solubility thermodynamic at 24 h [3]: 8.9 µM (≈ 4.06 µg/mL); logD at 2 h [4]: 2.7
8 |  | 21.4 | O=C(CCCc1cn(C(=O)c2cccs2)c2ccccc12)NCCCn1ccnc1 | 
9 |  | 26.9 | O=C(CCCc1cn(S(=O)(=O)c2cccnc2)c2ccccc12)NCCCn1ccnc1 | 
10 |  |  | O=C(CCCc1cn(S(=O)(=O)c2ccccc2)c2ccccc12)NCCCc1c[nH]cn1 | pKa [5]: 7
11 |  | 13.2 | O=C(CCCc1cn(S(=O)(=O)c2ccccc2)c2ccccc12)NCCCn1ccnc1 | pKa [5]: 6.9; solubility [6]: Soluble; logD at 2 h [4]: 2.7
12 | Insoluble |  | O=C(NCCCn1ccnc1)c1cn(S(=O)(=O)c2ccccc2)c2ccccc12 | 
13 | Insoluble |  | O=C(CCCc1cn(S(=O)(=O)c2ccc(-c3ccccc3)cc2)c2ccccc12)NCCCn1ccnc1 | 
14 | Insoluble |  | O=C(CCCc1cn(-c2ccccc2)c2ccccc12)NCCCn1ccnc1 | 
15 | Insoluble |  | O=C(CCCc1cn(C(=O)c2ccc(F)cc2)c2ccccc12)NCCCn1ccnc1 | 
16 |  | 14.1 | CN(CCCn1ccnc1)C(=O)CCCc1cn(S(=O)(=O)c2ccccc2)c2ccccc12 | 
17 | Insoluble |  | O=C(CCCc1cn(S(=O)(=O)c2ccccc2F)c2ccccc12)NCCCn1ccnc1 | 
18 |  | 28.8 | Cn1cnc(S(=O)(=O)n2cc(CCCC(=O)NCCCn3ccnc3)c3ccccc32)c1 | 
19 |  | 14.5 | N[C@@H](Cc1cn(S(=O)(=O)c2ccccc2)c2ccccc12)C(=O)NCCCn1ccnc1 | 
20 |  |  | O=C(CCCc1cn(S(=O)(=O)c2ccccc2)c2ccccc12)NCCCN1CCCC1 | pKa [5]: 8.8
21 | Insoluble |  | O=C(CCCc1cn(S(=O)(=O)c2ccc(F)cc2)c2ccccc12)NCCCn1ccnc1 | 
22 |  | 10.2 | O=C(NCCCn1ccnc1)NCCc1cn(S(=O)(=O)c2ccccc2)c2ccccc12 | 
23 |  | 26.9 | CS(=O)(=O)n1cc(CCCC(=O)NCCCn2ccnc2)c2ccccc21 | 
24 | Insoluble | 10.2 | O=C(CCCc1cn(S(=O)(=O)c2cccc(F)c2)c2ccccc12)NCCCn1ccnc1 | 
25 |  | 13.8 | O=C(CCCc1cn(S(=O)(=O)c2ccsc2)c2ccccc12)NCCCn1ccnc1 | 
